Columns and labels:
[1] = target: plasma kallikrein (Homo sapiens, UniProt P03952); experiment: inhibition of plasma kallikrein, dissociation constant Ki
[2] = target: thrombin (Bos taurus, UniProt P00735); experiment: biochemical
[3] = plasma concentration in rats after oral administration; type: in vivo; settings: rat
[4] = plasma concentration in rats after intravenous administration; type: in vivo; settings: rat; for concentration at 5 min / concentration at 0.25 h / concentration at 0.5 h / concentration at 1 h: plasma, iv; for concentration at 5 min / concentration at 0.25 h / concentration at 0.5 h / concentration at 1 h / Concentration in plasma: i.v. 1 mg/kg; for concentration at 0.25 h: 15 min; for concentration at 0.5 h: 30 min; for concentration at 1 h: 60 min
Experimental: A physiological NaCl solution of the substance to be tested was submitted to high pressure liquid chromatography (HPLC) in order to determine its characteristic substance-specific retention time with the chosen test conditions.
The substance to be tested was diluted in vitro in rat plasma. This solution was also submitted to HPLC to see whether the characteristic peak of the substance once again appeared at the substance-specific retention time.
Blood samples were taken at time intervals of 15 minutes, from which plasma samples were prepared by centrifugation; those samples were also submitted to HPLC to see whether the characteristic peak of the substance appeared again at the substance-specific retention time.
After administration, blood samples were taken from the test animals at time intervals from 2 to maximally 360 minutes and the blood level of the compounds to be tested was determined by HPLC.

[5] = target: tPA (Homo sapiens, UniProt P00750); experiment: inhibition of tPA, dissociation constant Ki
tPA, sequence (P00750 36-562): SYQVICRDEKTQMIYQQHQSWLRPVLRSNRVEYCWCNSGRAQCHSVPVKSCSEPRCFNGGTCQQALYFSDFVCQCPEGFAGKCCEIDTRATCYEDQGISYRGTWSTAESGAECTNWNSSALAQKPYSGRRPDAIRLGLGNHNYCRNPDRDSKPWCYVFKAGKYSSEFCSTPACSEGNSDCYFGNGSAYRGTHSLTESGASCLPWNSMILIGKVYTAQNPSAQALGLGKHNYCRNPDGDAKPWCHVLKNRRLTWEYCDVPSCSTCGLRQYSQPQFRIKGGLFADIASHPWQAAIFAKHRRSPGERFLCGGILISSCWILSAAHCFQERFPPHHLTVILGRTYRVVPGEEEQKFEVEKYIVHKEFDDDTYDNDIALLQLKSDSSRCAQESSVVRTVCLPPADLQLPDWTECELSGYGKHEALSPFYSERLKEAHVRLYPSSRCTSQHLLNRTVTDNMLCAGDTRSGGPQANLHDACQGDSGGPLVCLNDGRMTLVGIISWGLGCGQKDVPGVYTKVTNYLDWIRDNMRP

[6] = target: T1, factor XIIa (Homo sapiens, UniProt P00748); experiment: inhibition of factor XIIa, dissociation constant Ki
T1 sequence (P00748 373-615 limits assumed): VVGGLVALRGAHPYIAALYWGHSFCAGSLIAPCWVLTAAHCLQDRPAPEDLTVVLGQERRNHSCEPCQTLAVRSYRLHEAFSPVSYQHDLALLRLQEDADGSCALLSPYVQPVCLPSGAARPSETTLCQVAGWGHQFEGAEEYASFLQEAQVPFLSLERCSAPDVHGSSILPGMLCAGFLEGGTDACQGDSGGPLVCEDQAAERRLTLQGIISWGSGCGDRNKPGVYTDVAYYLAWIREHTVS

[7] = tested on: coagulation in human plasma; experiment: prothrombin time (PT, Quick value) in human plasma
[8] = tested on: coagulation in human plasma; experiment: thrombin time (TT) in human plasma
[9] = target: glandular kallikrein (Sus scrofa, UniProt P00752); experiment: inhibition of glandular kallikrein, dissociation constant Ki
glandular kallikrein, sequence (P00752 8-246): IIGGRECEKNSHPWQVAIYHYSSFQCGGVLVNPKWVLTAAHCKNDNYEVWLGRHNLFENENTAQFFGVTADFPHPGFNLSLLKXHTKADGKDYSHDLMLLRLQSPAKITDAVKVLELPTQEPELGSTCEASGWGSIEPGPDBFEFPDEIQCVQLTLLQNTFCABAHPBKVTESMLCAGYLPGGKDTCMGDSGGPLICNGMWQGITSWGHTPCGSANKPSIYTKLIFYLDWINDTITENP

[10] = tested on: coagulation in human plasma; experiment: activated partial thromboplastin time (aPTT) in human plasma
[11] = plasma concentration in rats after rectal administration; type: in vivo; settings: plasma, rat; for concentration at 0.5 h: 30 min; for concentration at 1 h: 60 min; for concentration at 2 h: 120 min; for concentration at 3 h: 180 min
[12] = target: T2, trypsin (Bos taurus, UniProt P00760); experiment: inhibition of trypsin, dissociation constant Ki; type: biochemical; design: thrombin and the related enzymes trypsin, plasmin, factor Xa, factor XIIa; settings: Table 1; read-out: Ki, Trypsin
T2 sequence (P00760 24-246): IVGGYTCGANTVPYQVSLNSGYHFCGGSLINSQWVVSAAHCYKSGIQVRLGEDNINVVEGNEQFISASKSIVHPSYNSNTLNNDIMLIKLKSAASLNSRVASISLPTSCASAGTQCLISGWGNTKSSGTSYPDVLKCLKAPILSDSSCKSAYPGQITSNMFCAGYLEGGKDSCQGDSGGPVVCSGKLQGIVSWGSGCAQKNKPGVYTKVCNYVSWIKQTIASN
Experimental: The biological activity of the compounds of the present invention was determined in vitro as well as in vivo.

[13] = in vivo; settings: rat, intraduodenal 100 mg/kg; for Concentration in plasma: hydrochloride, 100 mg/kg
[14] = concentration in rat plasma in the anticoagulant study after rectal application; type: in vivo; settings: for concentration at 0.5 h / concentration at 1 h / concentration at 2 h / concentration at 3 h: plasma; for concentration at 0.5 h: 30 min; for concentration at 1 h: 60 min; for concentration at 2 h: 120 min; for concentration at 3 h: 180 min; for Concentration in plasma: 0 min
[15] = tested on: coagulation in rat plasma; experiment: aPTT in rat plasma after rectal application; type: in vivo
Experimental: (§1) After rectal administration of the compounds to be tested, the anticoagulant effect was determined in the plasma of experimental animals.

[16] = tested on: coagulation in rat plasma; experiment: thrombin time in rat plasma after rectal application; type: in vivo
Experimental: as §1

[17] = target: plasmin (Homo sapiens, UniProt P00747); experiment: inhibition of plasmin, dissociation constant Ki
plasmin, sequence (P00747 581-810 limits assumed): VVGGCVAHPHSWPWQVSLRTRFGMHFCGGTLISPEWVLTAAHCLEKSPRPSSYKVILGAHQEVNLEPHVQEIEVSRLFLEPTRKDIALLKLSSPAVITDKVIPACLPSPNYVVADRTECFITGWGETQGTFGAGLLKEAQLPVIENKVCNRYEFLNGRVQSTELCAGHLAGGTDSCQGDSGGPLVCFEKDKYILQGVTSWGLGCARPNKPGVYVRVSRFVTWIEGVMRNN
plasmin, sequence (P00747 97-580 partner limits assumed): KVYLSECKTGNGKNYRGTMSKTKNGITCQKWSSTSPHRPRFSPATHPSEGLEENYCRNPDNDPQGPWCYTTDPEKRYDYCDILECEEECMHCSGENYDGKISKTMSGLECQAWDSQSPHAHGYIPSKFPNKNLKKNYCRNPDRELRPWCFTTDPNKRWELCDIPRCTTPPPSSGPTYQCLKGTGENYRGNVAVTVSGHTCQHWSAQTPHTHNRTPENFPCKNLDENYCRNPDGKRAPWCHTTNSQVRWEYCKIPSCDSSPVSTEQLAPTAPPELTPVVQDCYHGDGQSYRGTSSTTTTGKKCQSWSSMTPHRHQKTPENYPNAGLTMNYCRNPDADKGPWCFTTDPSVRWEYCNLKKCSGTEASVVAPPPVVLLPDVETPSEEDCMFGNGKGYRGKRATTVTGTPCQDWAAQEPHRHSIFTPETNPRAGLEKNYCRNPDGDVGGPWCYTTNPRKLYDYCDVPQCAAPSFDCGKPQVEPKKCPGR

plasma kallikrein, sequence (P03952 391-638 limits assumed, species assumed): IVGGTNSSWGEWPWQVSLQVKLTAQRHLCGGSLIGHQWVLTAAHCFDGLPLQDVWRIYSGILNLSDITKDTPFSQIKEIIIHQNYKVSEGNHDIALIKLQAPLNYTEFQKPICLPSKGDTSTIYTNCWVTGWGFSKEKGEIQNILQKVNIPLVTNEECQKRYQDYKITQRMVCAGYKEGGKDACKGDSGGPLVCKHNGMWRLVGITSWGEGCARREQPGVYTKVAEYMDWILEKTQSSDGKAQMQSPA
plasma kallikrein, sequence (P03952 20-390 partner limits assumed, species assumed): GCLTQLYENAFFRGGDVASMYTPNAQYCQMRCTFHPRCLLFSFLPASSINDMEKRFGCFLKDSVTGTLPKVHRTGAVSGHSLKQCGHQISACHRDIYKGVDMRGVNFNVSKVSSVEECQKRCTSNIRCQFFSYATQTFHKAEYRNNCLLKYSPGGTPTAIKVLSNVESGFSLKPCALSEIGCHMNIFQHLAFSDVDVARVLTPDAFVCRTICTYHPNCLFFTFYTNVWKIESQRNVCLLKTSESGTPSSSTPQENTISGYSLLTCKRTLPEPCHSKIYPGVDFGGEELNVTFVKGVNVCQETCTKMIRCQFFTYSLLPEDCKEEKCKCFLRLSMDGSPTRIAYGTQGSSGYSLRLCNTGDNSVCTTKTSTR

## CCOC(=O)N1CCN(C(=O)C(Cc2cccc(C(=N)N)c2)NS(=O)(=O)c2ccc3ccccc3c2)CC1 (racemic) [X, N-α-(2-naphthylsulfonyl)-(D,L)-3-amidinophenylalanine-4-ethoxycarbonyl piperazide, reference compound]
[1]
  Ki: 30 µM
[2]
  Ki: 0.67 µM
[3]; plasma, oral 50 mg/kg, 30 min
  concentration at 0.5 h: 33 ng/mL
[3]; plasma, oral 50 mg/kg, 60 min
  concentration at 1 h: 10 ng/mL
[3]; oral 50 mg/kg, 120 min
  Concentration in plasma: 0 ng/mL
[3]; oral 50 mg/kg, 180 min
  Concentration in plasma: 0 ng/mL
[3]; oral 50 mg/kg, 240 min
  Concentration in plasma: 0 ng/mL
[3]; oral 50 mg/kg, 300 min
  Concentration in plasma: 0 ng/mL
[4]
  concentration at 5 min: 812 ng/mL
  concentration at 0.25 h: 169 ng/mL
  concentration at 0.5 h: 40 ng/mL
  concentration at 1 h: 8 ng/mL
[4]; 120 min
  Concentration in plasma: 0 ng/mL
[4]; 180 min
  Concentration in plasma: 0 ng/mL
[5]
  Ki: 370 µM
[6]
  Ki: 210 µM
[7]
  Concentr. to double the Prothrombin time: 45 µmol/L
[8]
  Concentr. to double the Thrombin time: 4.1 µmol/L
[9]
  Ki: > 1000 µM
[10]
  Concentr. to double the aPTT: 20 µmol/L
[11]; rectal 100 mg/kg
  concentration at 0.5 h: 3260 ng/mL
  concentration at 1 h: 2370 ng/mL
  concentration at 2 h: 1800 ng/mL
  concentration at 3 h: 898 ng/mL
[11]; rectal 100 mg/kg, 240 min
  concentration at 4 h: 626 ng/mL
[11]; rectal 100 mg/kg, 300 min
  concentration at 5 h: 592 ng/mL
[11]; rectal 100 mg/kg, 360 min
  concentration at 6 h: 448 ng/mL

## CS(=O)(=O)N1CCN(C(=O)[C@H](Cc2cccc(C(=N)N)c2)NS(=O)(=O)c2ccc3ccccc3c2)CC1.Cl [Compound 5, Nα-(2-naphthylsulfonyl)-3-amidino-(L)-phenylalanine-4methylsulfonylpiperazide hydrochloride]
[1]
  Ki: 9.2 µM
[3]; oral
  resorption in words: only slightly resorbed
[4]
  concentration at 5 min: 879 ng/mL
  concentration at 0.25 h: 367 ng/mL
  concentration at 0.5 h: 151 ng/mL
  concentration at 1 h: 50 ng/mL
[4]; i.v.
  elimination in words: eliminated at comparable rate
[4]; 120 min
  Concentration in plasma: 0 ng/mL
[4]; 180 min
  Concentration in plasma: 0 ng/mL
[12]
  Ki: 0.067 µM
[13]; plasma, 180 min
  concentration at 3 h: 297 ng/mL
[13]; plasma, 240 min
  concentration at 4 h: 530 ng/mL
[13]; plasma, 300 min
  concentration at 5 h: 137 ng/mL
[13]; plasma, 360 min
  concentration at 6 h: 119 ng/mL
[13]; 30 min
  Concentration in plasma: 8744 ng/mL
[13]; 30 min, listed as 5*
  Concentration in plasma: 1576 ng/mL
[13]; 60 min
  Concentration in plasma: 9314 ng/mL
[13]; 60 min, listed as 5*
  Concentration in plasma: 1900 ng/mL
[13]; 120 min
  Concentration in plasma: 8612 ng/mL
[13]; 120 min, listed as 5*
  Concentration in plasma: 1763 ng/mL
[5]
  Ki: 190 µM
[14]; rectal 5 mg/kg
  concentration at 0.5 h: 168 ng/mL
  concentration at 1 h: 65 ng/mL
  concentration at 2 h: 82 ng/mL
  concentration at 3 h: 10 ng/mL
  Concentration in plasma: 0 ng/mL
[14]; rectal 20 mg/kg
  concentration at 0.5 h: 1570 ng/mL
  concentration at 1 h: 983 ng/mL
  concentration at 2 h: 380 ng/mL
  concentration at 3 h: 195 ng/mL
  Concentration in plasma: 0 ng/mL
[6]
  Ki: 52 µM
[15]; rectal 5 mg/kg, 0 min
  Clotting time, aPTT: 21.2 s
[15]; rectal 5 mg/kg, 30 min
  Clotting time, aPTT: 34.5 s
[15]; rectal 5 mg/kg, 60 min
  Clotting time, aPTT: 30.5 s
[15]; rectal 5 mg/kg, 120 min
  Clotting time, aPTT: 27.5 s
[15]; rectal 5 mg/kg, 180 min
  Clotting time, aPTT: 25.3 s
[15]; rectal 20 mg/kg, 0 min
  Clotting time, aPTT: 22 s
[15]; rectal 20 mg/kg, 30 min
  Clotting time, aPTT: 65 s
[15]; rectal 20 mg/kg, 60 min
  Clotting time, aPTT: 62.5 s
[15]; rectal 20 mg/kg, 120 min
  Clotting time, aPTT: 36 s
[15]; rectal 20 mg/kg, 180 min
  Clotting time, aPTT: 29.7 s
[16]; rectal 5 mg/kg, 0 min
  Clotting time, Thrombin time: 51.5 s
[16]; rectal 5 mg/kg, 30 min
  Clotting time, Thrombin time: > 300 s
[16]; rectal 5 mg/kg, 60 min
  Clotting time, Thrombin time: 255 s
[16]; rectal 5 mg/kg, 120 min
  Clotting time, Thrombin time: 137.5 s
[16]; rectal 5 mg/kg, 180 min
  Clotting time, Thrombin time: 95 s
[16]; rectal 20 mg/kg, 0 min
  Clotting time, Thrombin time: 153 s
[16]; rectal 20 mg/kg, 30 min
  Clotting time, Thrombin time: > 300 s
[16]; rectal 20 mg/kg, 60 min
  Clotting time, Thrombin time: > 300 s
[16]; rectal 20 mg/kg, 120 min
  Clotting time, Thrombin time: > 300 s
[16]; rectal 20 mg/kg, 180 min
  Clotting time, Thrombin time: > 300 s
[7]
  Concentr. to double the Prothrombin time: 0.39 µmol/L
  concentration to double the PT: ≤ 1 μmol/1
[17]
  Ki: 9 µM
[8]
  Concentr. to double the Thrombin time: 0.034 µmol/L
  concentration to double the TT: less than 10^-7 mol/1
[9]
  Ki: > 1000 µM
[10]
  Concentr. to double the aPTT: 0.26 µmol/L
  concentration to double the aPTT: ≤ 1 μmol/1
[11]; rectal 20 mg/kg
  concentration at 0.5 h: 1650 ng/mL
  concentration at 1 h: 958 ng/mL
  concentration at 2 h: 299 ng/mL
  concentration at 3 h: 192 ng/mL

Source: US5607937A, “Piperazides of substituted phenylalanine derivatives as thrombin inhibitors” (priority 1993, dated 1997)
